Experimental data: patent US20020169296A1, “Linked, sequence-specific DNA-binding molecules” (priority 2000, published 2002)
Values joined by “and” are separate entries in the source; they are usually repeats but may differ in a detail not shown here. Equal values may be shown once. Read-outs that look alike come from different tables or passages of the source.

How the values were obtained:
[1] = test system: W9 probe (isolated 9 bp AT-tract); assay: DNase I footprinting on W9 probe; format: binding
Excerpt: To target AT-tracts, the principal component of satellite I, III and SARs), a pyrrole pentamer was synthesized by facile solid phase chemistry in which five pyrrole (Py) aromatic amino acid rings are linked covalently by amide bonds (Baird and Dervan, 1996). The resulting compound, termed P7 had the sequence Py-Py-Py-Py-Py-β-Dp (where β=β-alanine and Dp=dimethylaminopropylamide). This compound is expected to bind 7 successive A or T base pairs (Ws) according to the n+1 rule where n is the number of amides (Youngquist and Dervan, 1985). The DNA binding properties of P7 were assessed by DNAse I footprinting experiments using a synthetic probe containing isolated, repeated AT-tracts of 9 Ws (W9, FIG. 2A). By visual inspection, the apparent dissociation constant (Kapp) for P7 was estimated to be approximately 80 nM (Table 3).
were hybridized to obtain the W9 probe, oligomerized by ligation and digested with BamHl and BglII to obtain different tandem repeats. The following oligonucleotides were prepared identically:
(§1) Fragments were purified on low-melt agarose gels and then cloned into a modified pSP64 vector, cut by BamHI and BglII. End-labeling was carried out following digestion with HindIII and a fill-in reaction with Klenow DNA polymerase. The labeled plasmid was cut with PvuII and the target fragments purified from low-melting agarose gels. The 657 bp EcoRl/Hinf1 fragment of the Drosophila histone SAR was cloned into the SmaI site of the modified pSP64 plasmid. This SAR probe was end-labeled following digestion with EcoRl, then cut with ClaI and the resulting 347 bp fragment purified from low-melting agarose gels.
(§2) All reactions were performed in a total volume of 40 μl. A polyamide stock solution or buffer (for reference lanes) was added to an assay buffer containing 20 kcpm radiolabeled DNA, affording final concentrations of 10 mM Tris-HCl (pH 7.4), 10 mM KCl, 10 mM MgCl, 5 mM CaCl2, 0.5 mM EDTA, 0.5 mM EGTA, 1 mM DTT and 0.1% digitonine. The solutions were allowed to equilibrate for at least 2 h at room temperature. Footprinting reactions were initiated by the addition of 2 μl of a DNase stock solution (containing −100 pg DNase I in buffer) and allowed to proceed for 2 min at room temperature. The reactions were stopped by addition of 10 μl of a solution containing 1.25 M NaCl, 100 mM EDTA. Next, 5 μl of a 1% SDS solution was added, followed by 2 μl of a solution containing 1 μg poly(dA-dT), 1 μg salmon sperm DNA and 10 μg glycogen and the DNA was ethanol precipitated (20 min at −20° C.). The reactions were resuspended in 4 μl of 80% formamide loading buffer, denatured 10 min at 85° C., cooled on ice and electrophoresed on 8% polyacrylamide denaturing gels (5% cross-link, 8 M urea) at 30 W for 1 h. The gels were dried and exposed o/n at −70° C.

[2] = test system: Drosophila histone SAR probe (clustered/long AT-tracts); assay: DNase I footprinting on SAR probe; format: binding
Experimental: Since satellite I is composed of exclusively A and T bases, it constitutes an ‘ideal’ binding substrate for oligopyrroles. But to obtain SAR-specific compounds, molecules are required that preferably bind its clustered, irregularly spaced AT-tracts. Binding studies were carried out with P9, P7 and P13 on the Drosophila histone SAR probe which contains the following clustered/long AT-tracts (W15N3W17N5W16N13W8NW6 where N is any base, see also FIG. 3D). […] The ratio of these two affinities is used (KappW9/KappSAR) as an empirical measure of SAR specificity. For all compounds tested thus far, this value (referred to as SAR preference factor) was around unity (Table 3).
as §1, §2

[3] = test system: Drosophila satellite III chromatin (topoisomerase II cleavage); assay: Topoisomerase II cleavage in satellite III of Kc nuclei in Xenopus egg extracts with VM26; format: biochemical; settings: for concentration giving massive cleavage stimulation: P31 at 500 nM comparable to P9 at 62 nM (lowest tested)
[4] = test system: sperm nuclei (condensation to chromatids); assay: Chromosome condensation of sperm nuclei in mitotic Xenopus egg extracts; format: biochemical
Excerpt: Mitotic Xenopus egg extracts convert added nuclei and sperm to chromatids in vitro. This chromosome condensation process requires topoisomerase II (Adachi et al., 1991), the protein complex condensin (Hirano T, 1997) and presumably other unidentified activities present in the mitotic extract. First, chromatin is remodeled and nuclei then proceed quite synchronously through a number of morphologically distinguishable steps (Hirano and Mitchison, 1991). Remodeling is morphological manifested by swelling of the nuclei which involves exchange of basic sperm-specific proteins for H2A/H2B and the incorporation of histone B4 (Dimitrov S, 1994).
Pyrrole drugs were added to the extract together with the sperm or after the remodeling step (at 10 minutes) and the extent of condensation was determined after 120 min. At this time point, the conversion of all sperm nuclei to clusters of individual chromatids is complete in the absence of drug (FIG. 8A, control). […] Addition of this compound at 125 to 250 nM (indicated) arrested this process at the so-called early ‘ruffle’ stage (FIG. 8A). These structures retain the swollen sperm shape, but they have peripheral blebs (ruffles) and a slightly heterogeneous interior. At this drug concentration, no chromatids are seen. If the concentration of Lex10 is raised to 500 nM, we observed an even earlier arrest as evidenced by the accumulation of swollen, remodeled sperm-shaped nuclei containing a homogeneous interior and smooth periphery. […] The monomer P7 was also tested but we observed no inhibition with the pyrrole pentamer up to the highest concentration (8 μM) tested. Condensation was inhibited at a ruffle stage with a P9 concentration of 2 μM (not shown).
In the experiment shown in FIG. 8B, Lex10 was added to the extract at a final concentration of 1 μM (several fold above the minimum inhibitory concentration) after which competitor oligonucleotides were added at different stages. Three different oligonucleotides of similar size were used: the SAR oligo contains two large clustered AT-tracts of the SAR probe (W17N5W15), the W9 oligo has a single AT tract of 9 base pairs and the GAGAA oligo harbors 5 tandem GAGAA repeats.
Topoisomerase II inhibition and chromosome assembly were as described previously (Girard et al., 1998, Strick and Laemmli, 1995). Affinity cleavage experiments was performed as described elsewhere (Turner et al., 1997).

[5] = test system: satellite III chromatin; assay: Restriction enzyme (HaeIII) cleavage within satellite III chromatin; format: biochemical, Drosophila; settings: data not shown
Excerpt: Satellite III repeats contain near the topoisomerase II cleavage site a HaeIII restriction sequence. […] We made a similar observation using P9 (data not shown).

[6] = biological target: two GAGAA repeats (GAF31 probe); assay: DNase I footprinting on GAGAA repeats; settings: read-out: apparent binding constant
Excerpt: In the framework of a search for molecular tools to study PEV, polyamide that targets the abundant satellite V composed of GAGAA repeats (Lohe et al., 1993) was synthesised. Designing molecules that would bind to this repeat motif represented a challenge since with current knowledge, targeting of sequences containing 5′-GNG-3′ or 5′-GA-3′ with drugs composed of pyrrole and imidazole is difficult. However, successful targeting to sequences containing 5′-GTG-3′ was previously achieved using an Im-β-Im motif where β-alanine replaces the function of pyrrole (Turner et al., 1998). Since β-alanine, like pyrroles, is degenerate for A.T and T.A base pairs, we designed a compound based on these observations, to recognize a sequence composed of two tandem GAGAA repeats by systematic placement of β-alanine at the N-terminal neighbor of imidazole. The binding affinity and specificity of this compound, termed P31 (=Im-β-Im-Py-β-Im-β-Im-β-Dp), were evaluated by DNAse I footprinting. For this purpose, two different probes were examined, both containing GAGAA repeats. […] The apparent binding constant of P31 for this sequence was estimated at 0.25 nM. At higher concentrations, protection of two mismatch binding sites was observed. One of these sites contains an AAGTG motif (FIG. 5A).
GAF31 is composed of the oligonucleotides:
(§3) All reactions were performed in a total volume of 40 μl. […]

[7] = test system: CACAA repeats (Brown I probe); assay: DNase I footprinting on CACAA repeats; format: binding
Excerpt: A drawback of this binding model, as opposed to conventional 2:1 drug to DNA complexes, is that P31 is expected to bind degenerate GC and CG base pairs, albeit with different affinity. The consensus sequence can thus be defined as […], where S stands for a G or C and W for A or T. To evaluate binding of P31 to CACAA repeats, we used a second probe that contains two of these repeats as well as five tandem GAGAA repeats. […] Again, it is observed than this molecule binds as a 1:1 drug to DNA complex in an orientation as indicated by arrowheads (FIG. 5A). We propose that special structural features of AT-tracts and GAGAA repeats might favor 1:1 DNA to drug complexes (see Discussion).
All reactions were performed in a total volume of 40 μl. A polyamide stock solution or buffer (for reference lanes) was added to an assay buffer containing 20 kcpm radiolabeled DNA, affording final concentrations of 10 mM Tris-HCl (pH 7.4), 10 mM KCl, 10 mM MgCl, 5 mM CaCl2, 0.5 mM EDTA, 0.5 mM EGTA, 1 mM DTT and 0.1% digitonine. The solutions were allowed to equilibrate for at least 2 h at room temperature. Footprinting reactions were initiated by the addition of 2 μl of a DNase stock solution (containing −100 pg DNase I in buffer) and allowed to proceed for 2 min at room temperature. The reactions were stopped by addition of 10 μl of a solution containing 1.25 M NaCl, 100 mM EDTA. […]

[8] = test system: GAGA factor (GAF) binding site from the Ubx promoter (GAF31 probe); assay: DNase I footprinting on Ubx GAF binding site
Excerpt: Panel A: DNAse I footprinting experiment with P31 and affinity cleavage with P31E are shown on GAF31 and the Brown I probes. The GAF31 and Brown I probes contains a (AAGAG)2 motif and GAGA factor (GAF) binding site from the Ubx promoter (Biggin et al., 1988). […] The Brown I oligo (a tandem repeat) includes an (AAGAG)5 binding site and a degenerate P31 binding site (AACAC)2 as indicated. P31 concentrations used (nM) are indicated. […] Binding orientations of P31E on these probes are indicated by arrowheads on the brackets pointing towards the N-terminus of the molecule. The letter G refers the G nucleotide cleavage reaction. Panel B: DNAse I footprinting experiment with purified GAGA factor (GAF) on the GAF31 probe. Note that GAF binds both the (AAGAG)2 motif and the binding site from the Ubx promoter.
A footprint experiment was therefore carried out with this protein. The DNA probe (GAF31) used for this purpose contains besides the (AAGAG)2 motif (the target of P31) a typical promoter proximal GAF binding site derived from the Ubx gene (Biggin et al., 1988). This Ubx site contains the pentameric consensus sequence […] of GAF (Omichinski et al., 1997).
as §3

[9] = test system: GAGA factor (GAF) function; assay: Feeding to developing Drosophila melanogaster of brown-dominant genotype; format: in vivo; settings: fed to developing flies

SMILES | better affinity for W9 than P7 [1] [fold] | Kd ([1]; apparent dissociation constant, W9 probe, read-out: Kdapp W9) | Ratio (KappW9/KappSAR, SAR preference factor) [2] | Kd ([2]; apparent dissociation constant, SAR probe, read-out: Kdapp SAR) [pM] | SAR specificity factor after tagging with fluorescent label ([2]; value of the tagged derivative) | concentration of maximal stimulation of topoisomerase II cleavage [3] | lower concentration for opening satellite III than P31 [3] | stimulation of topoisomerase II cleavage in satellite III [3] | concentration giving massive cleavage stimulation [3] [nM] | concentration inhibiting chromosome condensation (block at ruffle stage) ([4]; 120 min) [µM] | reversal of condensation inhibition by competitor oligonucleotide ([4]; P9 2 μM, 500 ng of SAR-, W9- or GAGAA-oligo) | restriction enzyme cleavage within satellite III [5] | Kd [6] [pM] | affinity for CACAA repeats relative to GAGAA repeats [7] | binding to Ubx GAF binding site [8] | stimulation of topoisomerase II cleavage in satellite III ([3]; up to a concentration of 200 nM) | effect on GAGA factor function in flies [9]
CN(C)CCCNC(=O)CCNC(=O)c1cc(NC(=O)c2cc(NC(=O)c3cc(NC(=O)CCNC(=O)c4cc(NC(=O)c5cc(NC(=O)c6cccn6C)cn5C)cn4C)cn3C)cn2C)cn1C [Compound P9, PyPyPy-β-PyPyPy-β-Dp] | 100 | ~750 pM and 750 pM | 1.4 | 550 | 3 | 500 nM and 500 to 1000 nM | roughly 10 fold | massively stimulated | 62 | 2 | did not rescue chromatid assembly | facilitated cleavage |  |  |  |  | 
CN(C)CCCNC(=O)CCNC(=O)c1nc(NC(=O)CCNC(=O)c2nc(NC(=O)CCNC(=O)c3cc(NC(=O)c4nc(NC(=O)CCNC(=O)c5nccn5C)cn4C)cn3C)cn2C)cn1C [Compound P31, Im-β-Im-Py-β-Im-β-Im-β-Dp] |  |  |  |  |  |  |  |  | 500 |  |  |  | 250 | approximately five fold lower affinity | does not bind | no significant reinforcement of the pattern | interferes with the function of the GAGA factor (GAF)
